Measurements taken from publication PMC6838324, “A suicide inhibitor of nematode trehalose-6-phosphate phosphatases” (Scientific Reports, 2019).
“And” between values parts separate entries of the source, which are not always exact repeats. Equal values may be shown once. “Also recorded” adds a separate entry of the source. Read-outs that look alike come from different tables or passages of the source.

Tests used:
[1] = biological target: TPPs from different nematode and bacterial organisms; conditions: read-out: inhibition constants; cited from earlier work
mycobacterial TPPs = tested on: mycobacterial TPPs; parameters: method as in PMID 30402996; conditions: cited from earlier work
Tcan-TPP = Tcan-TPP (Toxocara canis, UniProt A0A0B2V3X6); assay: biochemical; format: biochemical
Description: (§1) Compounds were prepared in stocks of increasing concentration such that only 2 μL was added to reaction wells, thus keeping the DMSO concentration consistent at 4%. Enzyme in the absence of compound (with DMSO only) was run as a control and after correction for background absorbance, all test wells were scaled relative to the enzyme-only control. IC50 values were determined through fitting using either the software application SDAR[50] or DRfit[51].

TPP from M. tuberculosis = TPP from M. tuberculosis (Mycobacterium tuberculosis, UniProt P9WFZ5); assay: Phosphatase end-point assay, M. tuberculosis TPP; format: biochemical; conditions: 25 μM compound
Acey-TPP = Acey-TPP (Ancylostoma ceylanicum, UniProt A0A016UGW6); assay: biochemical; conditions: for inhibition at 25 µM: read-out: inhibition of Acey-TPP enzyme activity
Description: as §1

Hcon-TPP1 = Hcon-TPP1 (Haemonchus contortus, UniProt A0A7I4Z3L8); assay: biochemical; conditions: for Ki: read-out: app. Ki, Hcon-TPP1, assuming a competitive inhibition model; for inhibition at 25 µM: read-out: inhibition of Hcon-TPP1 enzyme activity
Description: as §1

TPP from S. maltophilia = assay: Phosphatase end-point assay, S. maltophilia TPP; conditions: 25 μM compound
Description: (§3) Phosphatase end-point assays were carried out following a previously established protocol[35]. Briefly, the phosphatase activity of Acey-TPP and Tcan-TPP was assessed using 500 μM trehalose-6-phosphate and 10 μM enzyme to be tested. Reactions were carried out in a volume of 50 μL in assay buffer (100 mM NaCl, 20 mM TRIS, pH 7.5). Individual compounds were added to the reaction mixtures at a final concentration of 25 μM, followed by incubation for 5 min before reactions were initiated by the addition of substrate (final DMSO concentration of 4%).
(§4) Reactions were allowed to proceed for 5 min before quenching with 100 μL of BIOMOL® Green reagent (Enzo Life Sciences, New York, NY, USA). Absorbance at 620 nm was determined using a BioTek® Synergy 2 plate reader (BioTek, Winooski, VT, USA) after an incubation period of 15 min for colour development. All reactions were set up in triplicate in 96-well plates (Corning, Sigma-Aldrich, NSW, Australia) at 25 °C and control experiments in the absence of enzyme were used to correct for background absorbance.
(§5) Raw data were exported as spreadsheets from the plate reader and assembled for statistical analysis with R[48] using the software jBar[49] for calculation of means and standard errors, background correction, normalisation and significance evaluation by a two-sided t-test.

TPP from S. pneumoniae = assay: Phosphatase end-point assay, S. pneumoniae TPP; conditions: 25 μM compound
Description: as §3, §4, §5

T. cati L3 larvae = assay: L3 larvae survival assay, T. cati; format: cell-based
Description: (§2) Control larvae were maintained in 0.4% DMSO in Minimal Essential Medium. The survival of L3s exposed to the compound was assessed at several time points after the start of the incubation using a light microscope (at 40× maginification).

H. contortus xL3 larvae = assay: Motility assay of exsheathed third-stage larvae (xL3) of H. contortus; format: cell-based, Haemonchus contortus; conditions: 25 μM and 100 μM compound
Description: The effects of compound 1 were assessed in a motility assay using exsheathed third-stage larvae (xL3s) of H. contortus in 96-well microculture plates (Corning 3635; Life Sciences, USA) and the control compounds moxidectin and monepantel, following the published protocol. In brief, 1 was diluted to the final concentration of 100 µM using Luria Bertani medium (LB) supplemented with 100 IU/mL of penicillin, 100 μg mL^−1 of streptomycin and 2.5 μg mL^−1 of amphotericin (LB*), and then dispensed in triplicate into wells of a 96-well microculture plate using a multichannel pipette. Additionally, the negative controls (LB*, LB* + 0.5% solvent; six wells each), and positive controls (20 µM monepantel; Zolvix, Novartis Animal Health, Switzerland and 20 µM moxidectin; Cydectin, Virbac, France; triplicate wells) and xL3s (~300 per well) were dispensed into wells of the plate using an automated multichannel pipette. Following incubation at 38 °C and 10% CO2 for 72 h, a video recording of 5 s duration was taken of each well using a grayscale camera (Rolera Bolt, QImaging, Canada) and a motorized X-Y axis stage (BioPoint2, Ludl Electronic Products, USA). Videos were processed to calculate a motility index (MI) using an algorithm described previously.

Tcan-TPP-C215S = assay: Phosphatase end-point assay, C215S mutant of T. canis TPP; format: biochemical, Toxocara canis; conditions: 25 μM compound
T. canis L3 larvae = assay: L3 larvae survival assay, T. canis; format: cell-based
Description: as §2

Paer-ecTPP = Paer-ecTPP (Pseudomonas aeruginosa, UniProt B3G2E1); assay: Phosphatase end-point assay, extra-chromosomal TPP from P. aeruginosa; format: biochemical
Description: as §1

[2] = 25 μM compound, compared with uninhibited enzyme
[3] = listed as N-(phenylthio)phthalimide

Sequence of Paer-ecTPP (B3G2E1 entry or part of it): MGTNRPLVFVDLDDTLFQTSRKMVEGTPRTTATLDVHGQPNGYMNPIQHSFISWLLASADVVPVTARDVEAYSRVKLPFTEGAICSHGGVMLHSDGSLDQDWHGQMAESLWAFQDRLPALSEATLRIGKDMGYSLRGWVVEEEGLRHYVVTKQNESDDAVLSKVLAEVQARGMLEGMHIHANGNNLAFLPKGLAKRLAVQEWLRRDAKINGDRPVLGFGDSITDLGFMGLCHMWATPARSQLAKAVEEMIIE
Sequence of Tcan-TPP (A0A0B2V3X6 entry or part of it): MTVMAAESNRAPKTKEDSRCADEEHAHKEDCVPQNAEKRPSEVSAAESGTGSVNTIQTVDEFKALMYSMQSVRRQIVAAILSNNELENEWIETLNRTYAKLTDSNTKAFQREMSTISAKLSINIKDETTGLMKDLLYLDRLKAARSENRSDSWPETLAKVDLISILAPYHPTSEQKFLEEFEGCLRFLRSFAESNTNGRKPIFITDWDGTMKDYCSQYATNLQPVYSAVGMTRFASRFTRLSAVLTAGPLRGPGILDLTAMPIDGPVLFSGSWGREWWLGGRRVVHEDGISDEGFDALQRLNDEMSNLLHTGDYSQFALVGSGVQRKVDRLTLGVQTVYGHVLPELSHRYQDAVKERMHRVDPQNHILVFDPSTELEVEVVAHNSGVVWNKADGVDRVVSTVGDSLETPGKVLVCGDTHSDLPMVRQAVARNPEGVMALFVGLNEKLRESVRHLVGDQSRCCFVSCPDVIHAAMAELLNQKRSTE
Sequence of Acey-TPP (A0A016UGW6 entry or part of it): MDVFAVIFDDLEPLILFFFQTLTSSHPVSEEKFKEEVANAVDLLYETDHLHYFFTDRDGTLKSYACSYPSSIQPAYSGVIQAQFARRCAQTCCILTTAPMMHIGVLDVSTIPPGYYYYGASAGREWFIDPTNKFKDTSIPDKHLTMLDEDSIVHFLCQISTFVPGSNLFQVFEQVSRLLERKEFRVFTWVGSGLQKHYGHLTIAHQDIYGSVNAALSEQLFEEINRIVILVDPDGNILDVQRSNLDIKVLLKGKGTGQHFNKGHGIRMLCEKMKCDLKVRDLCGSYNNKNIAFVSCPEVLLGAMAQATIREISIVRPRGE
Sequence of Hcon-TPP1 (A0A7I4Z3L8 entry or part of it): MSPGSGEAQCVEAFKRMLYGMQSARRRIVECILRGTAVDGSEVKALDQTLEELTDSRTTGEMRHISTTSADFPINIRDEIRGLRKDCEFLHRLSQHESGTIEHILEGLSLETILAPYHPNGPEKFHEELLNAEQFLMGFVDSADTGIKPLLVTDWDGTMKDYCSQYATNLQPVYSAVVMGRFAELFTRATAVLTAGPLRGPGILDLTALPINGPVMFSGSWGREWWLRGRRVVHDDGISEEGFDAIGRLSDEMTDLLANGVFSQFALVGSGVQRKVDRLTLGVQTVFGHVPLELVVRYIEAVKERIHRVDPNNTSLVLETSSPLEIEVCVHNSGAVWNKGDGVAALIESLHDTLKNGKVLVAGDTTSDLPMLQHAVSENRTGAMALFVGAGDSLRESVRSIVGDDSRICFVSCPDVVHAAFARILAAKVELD
Sequence of TPP from M. tuberculosis (P9WFZ5 whole entry, looked up): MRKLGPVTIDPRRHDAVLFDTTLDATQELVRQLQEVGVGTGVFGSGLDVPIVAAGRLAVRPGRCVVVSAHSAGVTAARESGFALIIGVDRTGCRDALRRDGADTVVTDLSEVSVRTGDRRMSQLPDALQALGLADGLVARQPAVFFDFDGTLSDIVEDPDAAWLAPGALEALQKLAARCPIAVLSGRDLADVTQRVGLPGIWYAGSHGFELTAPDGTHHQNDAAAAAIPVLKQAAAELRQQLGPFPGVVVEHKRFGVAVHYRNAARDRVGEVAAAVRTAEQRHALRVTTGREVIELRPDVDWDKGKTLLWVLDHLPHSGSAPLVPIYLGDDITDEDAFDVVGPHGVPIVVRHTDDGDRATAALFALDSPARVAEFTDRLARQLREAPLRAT

Q: For `O=S(=O)(O)OC[C@H]1O[C@H](O[C@H]2O[C@H](CO)[C@@H](O)[C@H](O)[C@H]2O)[C@H](O)[C@@H](O)[C@@H]1O` [trehalose-6-sulphate], which Ki [1] is on record?
A: 50 to 300 µM

Q: For `OCC1=C[C@@H](N[C@H]2C[C@H](CO)[C@@H](O[C@H]3O[C@@H](CO)[C@H](O)[C@@H](O)[C@@H]3O)[C@H](O)[C@H]2O)[C@H](O)[C@@H](O)[C@@H]1O` [validamycin A], which IC50 (mycobacterial TPPs) is on record?
A: 12600 to 15000 µM

Q: For `O=C1c2ccccc2C(=O)N1Sc1ccccc1` [Compound 1, N-(phenylthio)phthalimide], which IC50 (Tcan-TPP) is on record?
A: 0.89 ± 0.037 µM

Q: What about the “inhibitory effect on phosphatase activity under reducing conditions” value (Tcan-TPP; 25 μM compound, 1 mM DTT, Tcan-TPP) of the same molecule?
A: entirely suppressed

Q: And the “inhibition of Tcan-TPP enzyme activity” value (Tcan-TPP; [2])?
A: complete annihilation

Q: And the Ki (Tcan-TPP; app. Ki, Tcan-TPP, assuming a competitive inhibition model)?
A: 0.6 µM and 0.56 µM

Q: What about the “inhibition of phosphatase activity” value (TPP from M. tuberculosis) of the same molecule?
A: only the extra-chromosomal TPP from P. aeruginosa was susceptible to inhibition

Q: And the “inhibitory effect on phosphatase activity under reducing conditions” value (Acey-TPP; 25 μM compound, 1 mM DTT, Acey-TPP)?
A: entirely suppressed

Q: What about the “inhibition of Acey-TPP enzyme activity” value (Acey-TPP; [2]) of the same molecule?
A: complete annihilation

Q: And the inhibition at 25 µM (Acey-TPP)?
A: > 50%

Q: What about the “concentration at which enzymatic activity is almost entirely suppressed” value (Hcon-TPP1; H. contortus TPP, dose-response) of the same molecule?
A: > 25 µM

Q: And the IC50 (Hcon-TPP1; Hcon-TPP1, phosphatase end-point assay)?
A: 6.6 ± 0.36 µM

Q: What about the Ki (Hcon-TPP1) of the same molecule?
A: 6 µM

Q: What about the Ki (Hcon-TPP1; [3]) of the same molecule?
A: 5.8 µM

Q: What about the inhibition at 25 µM (Hcon-TPP1) of the same molecule?
A: 82%

Q: And the “inhibition of phosphatase activity” value (TPP from S. maltophilia)?
A: only the extra-chromosomal TPP from P. aeruginosa was susceptible to inhibition

Q: And the “inhibition of phosphatase activity” value (TPP from S. pneumoniae)?
A: only the extra-chromosomal TPP from P. aeruginosa was susceptible to inhibition

Q: What about the lethality (T. cati L3 larvae; T. cati larvae, 100 μM, after 3 h) of the same molecule?
A: > 80%

Q: What about the LC50 (T. cati L3 larvae; Toxocara cati, 24 h, read-out: half maximum lethal concentration (IC50 in survival assay)) of the same molecule?
A: 9.3 µM

Q: What about the “motility of exsheathed H. contortus larvae (xL3)” value (H. contortus xL3 larvae) of the same molecule?
A: only weakly impaired

Q: What about the “motility of exsheathed H. contortus larvae (xL3)” value (H. contortus xL3 larvae; [3]) of the same molecule?
A: no bioactivity was observed; also recorded: no significant effects

Q: What about the “effect on enzymatic activity of mutant Tcan-TPP-C215S” value (Tcan-TPP-C215S) of the same molecule?
A: did not affect the enzymatic activity

Q: And the lethality (T. canis L3 larvae; T. canis larvae, 100 μM, after 24 h)?
A: > 80%

Q: And the LC50 (T. canis L3 larvae; Toxocara canis, 24 h, read-out: half maximum lethal concentration)?
A: 61 µM

Q: What about the “inhibition of phosphatase activity” value (Paer-ecTPP; 25 μM compound, P. aeruginosa extra-chromosomal TPP) of the same molecule?
A: susceptible to inhibition

Q: What about the Ki (Paer-ecTPP; Paer-ecTPP, assuming a competitive inhibition model, read-out: app. Ki) of the same molecule?
A: 2.1 µM

Q: What about the IC50 (Paer-ecTPP; Paer-ecTPP, phosphatase end-point assay) of the same molecule?
A: 2.1 ± 0.19 µM

Q: With `O=C1NC(=O)c2ccccc21` [Compound 3, phthalimide] as the molecule, how does the inhibition at 25 µM (Tcan-TPP; read-out: inhibition of Tcan-TPP enzyme activity) read?
A: ≤ 20%

Q: What about the inhibition at 25 µM (Acey-TPP) of the same molecule?
A: ≤ 20%

Q: What about the inhibition at 25 µM (Hcon-TPP1) of the same molecule?
A: ≤ 20%
